Calls of active or inactive are those of the source.

Experiment [1] has as its target T1, Corticotropin-releasing factor receptor 2/Corticotropin-releasing factor-binding protein (Homo sapiens, UniProt P24387+Q13324).
T1 sequence (Q13324 whole entry): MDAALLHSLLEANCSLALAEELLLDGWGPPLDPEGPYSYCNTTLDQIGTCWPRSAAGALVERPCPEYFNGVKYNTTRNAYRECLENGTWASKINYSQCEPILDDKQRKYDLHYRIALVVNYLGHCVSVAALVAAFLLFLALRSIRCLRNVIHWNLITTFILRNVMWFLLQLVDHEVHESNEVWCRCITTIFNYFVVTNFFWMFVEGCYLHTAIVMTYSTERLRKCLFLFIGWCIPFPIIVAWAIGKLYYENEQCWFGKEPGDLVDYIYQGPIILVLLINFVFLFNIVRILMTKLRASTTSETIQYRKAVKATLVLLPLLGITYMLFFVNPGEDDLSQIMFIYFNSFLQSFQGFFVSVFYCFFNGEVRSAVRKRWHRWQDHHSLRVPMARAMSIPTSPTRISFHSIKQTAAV
T1 sequence (P24387 whole entry): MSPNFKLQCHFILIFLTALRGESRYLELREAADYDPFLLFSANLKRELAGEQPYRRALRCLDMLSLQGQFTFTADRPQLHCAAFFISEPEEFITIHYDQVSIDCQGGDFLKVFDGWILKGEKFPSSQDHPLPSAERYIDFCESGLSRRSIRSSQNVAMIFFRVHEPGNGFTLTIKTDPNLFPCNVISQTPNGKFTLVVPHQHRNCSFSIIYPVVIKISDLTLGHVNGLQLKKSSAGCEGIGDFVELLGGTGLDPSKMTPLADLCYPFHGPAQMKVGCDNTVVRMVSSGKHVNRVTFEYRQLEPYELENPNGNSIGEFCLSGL
Put plainly: Dose Response confirmation of uHTS hits for small molecule antagonists of the CRF-binding protein and CRF-R2 receptor complex. The class given is functional. As to conditions: read-out: IC50_Mean.

Experiment [2] has as its target Latent membrane protein 1 (Human herpesvirus 4 (strain B95-8), UniProt P03230). Put plainly: LMP1 TES1 pathway selectivity over dsRED control – imaging, HEK293T, dual-color eGFP/dsRED, cherry-picks, selectivity assay for LMP1 NF-kB inhibitor project, dose response (AID 588398). Format: functional, cell-based.
The nature of experiment [3]: blockers of CRF-binding protein–CRF-R2 complex – cell-based, uHTS hits, 384-well, dose response (AID 651639). Format: functional, Homo sapiens. As to conditions: read-out: IC50_Mean.
In experiment [4] the test system is HEK293. Put plainly: EBV LMP1 TES2 canonical NF-kB signalling blockers – cell-based, HEK293, luciferase, cherry-pick, dose response (AID 588343). The class given is functional. As to conditions: Homo sapiens.
The target of experiment [5] is T1, Corticotropin-releasing factor receptor 2/Corticotropin-releasing factor-binding protein. Put plainly: activators of CRF receptor 2 with binding protein – uHTS hits, confirmation (AID 602473). The class given is functional. As to conditions: read-out: EC50_Mean.
The target in another experiment is T2, Caspase-3 (Homo sapiens, UniProt P42574).
T2 sequence (P42574 whole entry): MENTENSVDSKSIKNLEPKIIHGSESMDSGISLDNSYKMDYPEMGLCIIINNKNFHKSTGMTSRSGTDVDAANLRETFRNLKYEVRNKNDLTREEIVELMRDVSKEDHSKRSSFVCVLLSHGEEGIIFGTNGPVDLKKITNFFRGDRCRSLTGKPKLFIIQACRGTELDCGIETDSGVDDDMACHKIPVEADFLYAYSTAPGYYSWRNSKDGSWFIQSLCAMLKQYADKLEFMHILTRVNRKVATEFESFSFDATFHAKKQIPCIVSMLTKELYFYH
Put plainly: SAR Analysis of small molecule inhibitors of Sentrin-specific proteases (SENPs) using a Caspase-3 Selectivity assay. [Related pubchem assays (depositor defined):AID2540, AID2599, AID434973, AID489001]. The class given is functional.

For experiment [6], the target named is T3, Sentrin-specific protease 8 (Homo sapiens, UniProt Q96LD8).
T3 sequence (Q96LD8 whole entry): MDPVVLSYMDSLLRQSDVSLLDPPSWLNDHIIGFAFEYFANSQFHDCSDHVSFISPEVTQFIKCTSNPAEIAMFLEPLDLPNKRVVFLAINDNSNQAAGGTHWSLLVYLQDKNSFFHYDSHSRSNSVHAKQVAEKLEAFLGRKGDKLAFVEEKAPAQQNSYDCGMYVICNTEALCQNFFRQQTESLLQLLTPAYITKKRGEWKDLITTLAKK
The experiment can be described thus: inhibition of human SENP8 cleavage activity – biochemical, luminescence, SAR follow-up (AID 504501). Format: functional.

Experiment [7] concerns the target T4, Sentrin-specific protease 7 (Homo sapiens, UniProt Q9BQF6).
T4 sequence (Q9BQF6 whole entry): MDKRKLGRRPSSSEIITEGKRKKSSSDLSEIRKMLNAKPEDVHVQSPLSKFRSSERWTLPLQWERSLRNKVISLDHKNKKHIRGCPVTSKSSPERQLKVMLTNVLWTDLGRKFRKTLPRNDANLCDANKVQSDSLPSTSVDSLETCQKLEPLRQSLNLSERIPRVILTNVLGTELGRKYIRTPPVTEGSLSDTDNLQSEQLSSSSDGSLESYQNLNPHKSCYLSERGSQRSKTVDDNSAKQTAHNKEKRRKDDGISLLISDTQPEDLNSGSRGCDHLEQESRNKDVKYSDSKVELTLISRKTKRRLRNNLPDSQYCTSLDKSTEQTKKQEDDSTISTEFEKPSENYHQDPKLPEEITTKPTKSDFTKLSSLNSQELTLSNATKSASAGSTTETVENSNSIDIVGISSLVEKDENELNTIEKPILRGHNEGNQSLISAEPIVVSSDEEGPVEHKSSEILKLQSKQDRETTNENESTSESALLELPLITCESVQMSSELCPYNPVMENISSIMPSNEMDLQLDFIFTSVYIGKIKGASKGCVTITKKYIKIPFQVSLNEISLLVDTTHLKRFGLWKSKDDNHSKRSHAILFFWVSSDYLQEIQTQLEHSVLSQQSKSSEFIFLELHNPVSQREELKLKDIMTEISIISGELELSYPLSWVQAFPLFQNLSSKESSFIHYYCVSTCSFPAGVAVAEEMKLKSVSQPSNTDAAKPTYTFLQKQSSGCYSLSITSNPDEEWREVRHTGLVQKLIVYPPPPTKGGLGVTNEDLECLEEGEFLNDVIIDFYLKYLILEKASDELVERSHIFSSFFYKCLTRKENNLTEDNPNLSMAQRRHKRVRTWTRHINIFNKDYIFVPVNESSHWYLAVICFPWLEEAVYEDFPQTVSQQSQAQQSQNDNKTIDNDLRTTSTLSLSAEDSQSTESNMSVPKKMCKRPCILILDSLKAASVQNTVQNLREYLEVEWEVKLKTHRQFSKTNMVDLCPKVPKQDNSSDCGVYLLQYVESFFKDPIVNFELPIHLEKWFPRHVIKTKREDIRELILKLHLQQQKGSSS
The experiment can be described thus: inhibition of human SENP7 cleavage activity – biochemical, luminescence, SAR follow-up (AID 504497). Format: functional.

The target in experiment [8] is T5, Sentrin-specific protease 6 (Homo sapiens, UniProt Q9GZR1).
T5 sequence (Q9GZR1 whole entry): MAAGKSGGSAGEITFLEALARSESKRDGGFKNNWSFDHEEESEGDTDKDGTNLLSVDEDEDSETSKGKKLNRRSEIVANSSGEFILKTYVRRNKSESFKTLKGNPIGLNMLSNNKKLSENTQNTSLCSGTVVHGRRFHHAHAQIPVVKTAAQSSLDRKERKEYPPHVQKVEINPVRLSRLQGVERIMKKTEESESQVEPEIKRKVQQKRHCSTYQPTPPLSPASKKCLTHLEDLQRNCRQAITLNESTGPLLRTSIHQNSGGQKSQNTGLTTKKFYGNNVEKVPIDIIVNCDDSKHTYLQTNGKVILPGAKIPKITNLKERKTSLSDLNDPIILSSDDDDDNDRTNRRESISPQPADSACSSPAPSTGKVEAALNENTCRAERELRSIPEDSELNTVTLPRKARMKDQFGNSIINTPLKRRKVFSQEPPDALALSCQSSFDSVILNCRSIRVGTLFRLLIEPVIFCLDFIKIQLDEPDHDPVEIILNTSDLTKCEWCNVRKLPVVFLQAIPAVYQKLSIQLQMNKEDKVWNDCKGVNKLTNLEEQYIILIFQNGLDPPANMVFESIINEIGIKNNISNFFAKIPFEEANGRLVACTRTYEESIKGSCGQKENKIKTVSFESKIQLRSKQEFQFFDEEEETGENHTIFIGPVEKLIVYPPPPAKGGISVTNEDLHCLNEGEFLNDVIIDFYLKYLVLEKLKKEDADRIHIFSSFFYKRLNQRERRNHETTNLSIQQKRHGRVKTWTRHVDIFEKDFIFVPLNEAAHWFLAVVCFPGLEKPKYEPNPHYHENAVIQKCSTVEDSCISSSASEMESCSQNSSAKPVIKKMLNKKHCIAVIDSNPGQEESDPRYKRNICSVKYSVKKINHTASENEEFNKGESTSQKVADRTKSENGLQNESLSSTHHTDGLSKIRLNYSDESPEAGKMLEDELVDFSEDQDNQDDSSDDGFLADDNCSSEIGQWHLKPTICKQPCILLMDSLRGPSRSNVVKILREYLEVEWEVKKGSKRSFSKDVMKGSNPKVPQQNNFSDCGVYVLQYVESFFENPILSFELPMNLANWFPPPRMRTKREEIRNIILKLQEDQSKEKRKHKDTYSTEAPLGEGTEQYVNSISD
Put plainly: SAR Analysis of small molecule inhibitors of Sentrin-specific protease 6 (SENP6) using a Luminescent assay. [Related pubchem assays (depositor defined):AID2582, AID2599]. The class given is functional.

Experiment [9] concerns the target T6, Insulin-degrading enzyme (Homo sapiens, UniProt P14735).
T6 sequence (P14735 whole entry): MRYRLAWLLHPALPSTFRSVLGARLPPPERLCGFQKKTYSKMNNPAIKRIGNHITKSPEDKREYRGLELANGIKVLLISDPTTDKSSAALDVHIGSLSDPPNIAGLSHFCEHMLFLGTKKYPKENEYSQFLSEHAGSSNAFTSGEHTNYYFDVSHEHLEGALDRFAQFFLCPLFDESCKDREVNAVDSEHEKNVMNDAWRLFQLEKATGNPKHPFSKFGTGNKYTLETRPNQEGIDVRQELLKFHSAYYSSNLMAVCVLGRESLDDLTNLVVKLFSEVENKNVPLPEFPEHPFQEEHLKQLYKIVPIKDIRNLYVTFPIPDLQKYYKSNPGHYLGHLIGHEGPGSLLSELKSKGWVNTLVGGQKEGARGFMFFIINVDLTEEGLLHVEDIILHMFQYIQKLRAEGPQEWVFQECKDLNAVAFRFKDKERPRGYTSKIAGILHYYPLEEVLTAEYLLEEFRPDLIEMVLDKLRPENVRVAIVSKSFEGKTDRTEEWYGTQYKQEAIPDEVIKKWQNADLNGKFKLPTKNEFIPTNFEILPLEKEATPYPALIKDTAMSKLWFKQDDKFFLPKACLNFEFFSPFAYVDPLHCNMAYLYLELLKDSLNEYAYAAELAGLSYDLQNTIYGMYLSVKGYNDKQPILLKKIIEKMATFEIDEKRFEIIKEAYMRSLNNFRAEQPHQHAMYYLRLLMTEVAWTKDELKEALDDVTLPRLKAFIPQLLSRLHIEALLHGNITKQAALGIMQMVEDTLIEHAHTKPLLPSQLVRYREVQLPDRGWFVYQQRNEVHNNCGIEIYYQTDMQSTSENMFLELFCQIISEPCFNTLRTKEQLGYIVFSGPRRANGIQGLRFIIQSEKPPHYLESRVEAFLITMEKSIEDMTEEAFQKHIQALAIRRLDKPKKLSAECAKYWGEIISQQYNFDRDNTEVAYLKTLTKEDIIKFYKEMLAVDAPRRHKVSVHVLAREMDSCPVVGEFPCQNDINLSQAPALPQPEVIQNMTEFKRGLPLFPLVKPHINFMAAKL
Put plainly: recombinant IDE activation, cell-free – biochemical, fluorescence polarization, counter-screen for IDE activator project, dose response (AID 588681). In general terms: Fluorescence polarisation rises when a labelled molecule tumbles more slowly, as on binding a larger partner.

Experiment [10] has as its target T6, Insulin-degrading enzyme. Put plainly: cellular IDE activation of Abeta substrate cleavage – fluorescence polarization, HEK cells, dose response (AID 588439). The class given is functional, cell-based.
In experiment [11] the test system is HEK293. Put plainly: optical interference in Abeta FP readout, dose response, artefact control for IDE activator project, biochemical, fluorescence polarization (AID 588442). Format: functional, cell-based. As to conditions: Homo sapiens.
In experiment [12] the test system is HEK293. The experiment can be described thus: membrane integrity loss in HEK cells – cell-based, fluorescence, cytotoxicity control for IDE activator project, dose response (AID 588440).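 Further: cytotoxicity by LDH release measuring loss of membrane integrity.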 Format: functional. To be noted: Homo sapiens.

Sequence of Latent membrane protein 1 (P03230 whole entry): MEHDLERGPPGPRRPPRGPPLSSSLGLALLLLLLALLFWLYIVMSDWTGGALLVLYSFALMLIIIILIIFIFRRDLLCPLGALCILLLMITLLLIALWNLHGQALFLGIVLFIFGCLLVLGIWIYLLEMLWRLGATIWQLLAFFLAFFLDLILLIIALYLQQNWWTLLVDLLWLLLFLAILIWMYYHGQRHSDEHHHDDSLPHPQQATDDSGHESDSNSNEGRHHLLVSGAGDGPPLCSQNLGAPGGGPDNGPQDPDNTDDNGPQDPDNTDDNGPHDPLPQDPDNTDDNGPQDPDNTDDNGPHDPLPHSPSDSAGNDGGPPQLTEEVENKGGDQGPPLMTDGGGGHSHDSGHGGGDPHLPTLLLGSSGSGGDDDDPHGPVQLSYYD

With `CC(C)c1cc(NC(=O)c2ccccc2)cc(C(C)C)c1O`, the IC50 is < 0.368 µM (active) in [1] and 5.7 µM (active) in experiment [3]. Also, the AC50 in [2] is 30 µM (active); in the experiment on HEK293 [4], 98.1 µM (active). For the same compound, the EC50 in experiment [5] is > 53 µM (inactive).
As for `NC(=O)c1ccc(OC2CSC2)cc1`, the IC50 at Caspase-3 is > 99 µM (inactive); in experiment [6], 7.5 µM (active); in [7], > 99 µM (inactive); in [8], 18.7 µM (active).
As to `O=C(Cc1cccc(C(F)(F)F)c1)N(c1ccccc1)c1nc(-c2ccccc2)ns1`, the IC50 (at Caspase-3; in experiment [6]; in experiment [7]; in experiment [8]) was > 99 µM (inactive) each time.
Turning to `C[C@@H]1O[C@@H](O[C@H]2[C@H](O[C@H]3C[C@]4(C)[C@H](CC(O)C5[C@@H]([C@]6(C)CC[C@@H](C(C)(C)O)O6)CC[C@]54C)[C@@]4(C)CC[C@H](O)C(C)(C)C34)O[C@H](CO)[C@@H](O)[C@@H]2O)[C@H](O)[C@H](O)[C@H]1O` (some centres not stated), the EC50 at Insulin-degrading enzyme [9], at Insulin-degrading enzyme [10] and with HEK293 [11] was > 54.7 µM (inactive) throughout. Also, the IC50 in the experiment on HEK293 [12] was > 89.2 µM (inactive).

The AC50 is the midpoint of the concentration-response curve, whichever way the signal moves.

The values above are taken from ChEMBL document CHEMBL1201862, “PubChem BioAssay data set” (2004).
